Results on 5 molecules are retold here after patent publication US4215112A, “Tripeptides and methods” (Ortho Pharmaceutical Corporation, priority 1979, dated 1980).

Where a SMILES comes first, the peptide text is derived from it. Where no end group is shown, it is not given here. [ ]: non-standard residue; d: D form. Glx = not defined here; Sar = CNCC(=O)O

Assay [1] deals with Th-1+ T lymphocytes (T-precursor cells of bone marrow). The assay can be described thus: chicken induction assay, Th-1+ T cells. It counts as cell-based. From the text: (§1) To determine the activity and characteristics of the tripeptide amide produced in Example I, the following chicken induction assay was employed. This assay is described in greater detail in Brand, et al., Science, 193, 319-321 (July 23, 1976) and references contained therein.
(§2) Bone marrow from newly-hatched chickens was selected as a source of inducible cells because it lacks an appreciable number of Bu-1^+ or Th-1^+ cells. Pooled cells from femur and tibiotarsus of five newly-hatched chicks of strain SC (Hy-Line) were fractionated by ultracentrifugation on a five-layer discontinuous bovine serum albumin (BSA) gradient. Cells from the two lighter layers were combined, washed, and suspended for incubation at a concentration of 5×10^6 cells per milliliter with the appropriate concentration of test polypeptide in RPMI 1630 medium supplemented with 15 mM hepes, 5 percent γ-globulin-free fetal calf serum, deoxyribonuclease (14 to 18 unit/ml), heparin (5 unit/ml), penicillin (100 unit/ml), and streptomycin (100 μg/ml). Controls were incubated with BSA (1 μg/ml) or medium alone. After incubation, the cells were tested in the cytotoxicity assay using chicken Cl and guinea pig C2 to C9 complement fractions as described in the reference article. The proportion of Bu-1^+ or Th-1^+ cells in each layer was calculated as a cytotoxicity index, 100 (a-b)/a, where a and b are the percentages of viable cells in the complement control and test preparation, respectively. The percentage of cells induced was obtained by subtracting the mean values in the control incubations without inducing agents (usually 1 to 3 percent) from those of the test inductions.
(§3) This high dose of ubiquitin inactivates the ubiquitin receptors and thus prevents the induction of cells by any agent which acts through these receptors.

For assay [2], the system named is Bu-1+ B lymphocytes (B-precursor cells of bone marrow). The assay can be described thus: chicken induction assay, Bu-1+ B cells. The class given is cell-based.
Text: as §1, §2, §3

The test system of assay [3] is immunocyte-precursor cells. The assay can be described thus: in vitro induction of differentiation of immunocyte-precursor cells (general statement). It counts as cell-based. From the text:
Stated another way, the subject polypeptides have the capability of inducing differentiation of both Th-1^+ T-lymphocytes and Bu-1^+ B-lymphocytes.
The carrier may be any of the well-known carriers for this purpose including normal saline solutions, preferably with a protein diluent such as bovine serum albumin to prevent adsorptive losses to glassware at these low concentrations. The polypeptides of this invention are generally active when parenterally administered at a range of above about 1 μg/kg of body weight. For the treatment of DiGeorge Syndrome, the polypeptides may be parenterally administered at a rate of about 1 to about 100 μg/kg of body weight. Generally, the same range of dosage amounts may be used in treatment of the other conditions or diseases mentioned.

The test system of assay [4] is T cells. As to conditions: E rosette assay; literature; cited from earlier work.
In assay [5] the test system is T cells and B cells. As to conditions: literature / copending application; cited from earlier work.
Where [6] appears, read: bone marrow cells of newly-hatched chickens, cytotoxicity assay.

For `C[C@@H](NC(=O)[C@@H](N)CCCCN)C(=O)N[C@@H](CCC(N)=O)C(N)=O` [H--LYS--D--ALA--GLN--NH2] (H-Lys-[dA]-Gln-NH2), the “biological activity: induction of differentiation of Th-1+ T cells” value in assay [1] (result in words) is listed as “Biological activity similar to that of ubiquitin was observed”. Besides, the “biological activity: induction of differentiation of Bu-1+ B cells” value in assay [2] (result in words) is reported as “Biological activity similar to that of ubiquitin was observed”.

`CN(CC(=O)N[C@@H](CCC(N)=O)C(N)=O)C(=O)[C@@H](N)CCCCN` [amidated tripeptide of Example I, H--LYS--SAR--GLN--NH2] (H-Lys-[Sar]-Gln-NH2): the “concentration inducing the differentiation of Th-1+ T lymphocytes” value in assay [1] (setting [6]) is 100 pg/mL. Besides, the “effect of added ubiquitin on induction of Th-1+ T cells by the test polypeptide” value in assay [1] (ubiquitin 100 μg/ml added) is on record as “inhibition of induction”. The “concentration inducing the differentiation of Bu-1+ B lymphocytes” value in assay [2] (setting [6]) is 100 pg/mL. Besides, in assay [2] (ubiquitin 100 μg/ml added), the “effect of added ubiquitin on induction of Bu-1+ B cells by the test polypeptide” value is “inhibition of induction”. Also, the “concentration at which active” value in assay [3] is on record as “about 100 pg/ml”.

Regarding “GLX--ALA--LYS--SER--GLN--GLY--GLY--SER--ASN (Glx-AKSQGGSN; reading uncertain; also: N-terminal Glx: Gln or pyroglutamic acid, printed as GLX--ALA--LYS--SER--GLN--GLY--GLY--SER--ASN) [FTS, nonapeptide isolated from porcine serum; GLX is glutamine or pyroglutamic acid]”, the “differentiation of T cells versus B cells” value in assay [4] is recorded as “selectively differentiated T cells (and not B cells)”. In assay [5], the “differentiation of T cells and B cells” value is “differentiated both T cells and B cells”.

In the case of “H--ALA--LYS--SER--GLN--OH (H-AKSQ-OH) [tetrapeptide of copending application Ser. No. 960,550]”, the “differentiation of T cells and B cells” value in assay [5] is given as “same activity as FTS”.

With H--SAR--LYS--SAR--GLN--NH2, the “differentiation of T cells and B cells” value in assay [5] is given as “same activity as FTS”.
